Data reported in patent US7169591B1, “Preparation of enantio-specific epoxides” (priority 1999, dated 2007).
Values joined by “and” are separate entries in the source; they are usually repeats but may differ in a detail not shown here. Equal values may be shown once.

What was measured:
[1] = system: Pseudomonas sp. strain ENVPC5; assay: Enantiomeric ratio of monoepoxides (chiral GC), strain ENVPC5; type: cell-based; conditions: PC5
Experimental: (§1) To determine the ratio of R and S isomers of the epoxides formed from the oxidation of the alkenes, samples were analyzed for the presence of the epoxides and alkenes by gas chromatography as described above. When the epoxide concentration neared its maximum, or when the 80–90% of the substrate was degraded, the enantiomeric ratio of epoxides produced was determined by injecting a sample of the headspace gas onto a GC equipped with a chiral separation column (RT-BDEXSE; Restek, Inc., Bellefonte, Pa.) and a flame ionization detector. The column was maintained at 50° C.

[2] = system: Burkholderia cepacia G4 (T2MO); assay: Enantiomeric ratio of monoepoxides (chiral GC), strain G4; type: cell-based
Experimental: as §1

[3] = system: Pseudomonas mendocina KR1 (T4MO); assay: Enantiomeric ratio of monoepoxides (chiral GC), strain KR1; type: cell-based
Experimental: as §1

alkene monooxygenase = target: T1, alkene monooxygenase (Xanthobacter versatilis, UniProt O87082); conditions: cited from earlier work
T1 sequence (O87082 1-497): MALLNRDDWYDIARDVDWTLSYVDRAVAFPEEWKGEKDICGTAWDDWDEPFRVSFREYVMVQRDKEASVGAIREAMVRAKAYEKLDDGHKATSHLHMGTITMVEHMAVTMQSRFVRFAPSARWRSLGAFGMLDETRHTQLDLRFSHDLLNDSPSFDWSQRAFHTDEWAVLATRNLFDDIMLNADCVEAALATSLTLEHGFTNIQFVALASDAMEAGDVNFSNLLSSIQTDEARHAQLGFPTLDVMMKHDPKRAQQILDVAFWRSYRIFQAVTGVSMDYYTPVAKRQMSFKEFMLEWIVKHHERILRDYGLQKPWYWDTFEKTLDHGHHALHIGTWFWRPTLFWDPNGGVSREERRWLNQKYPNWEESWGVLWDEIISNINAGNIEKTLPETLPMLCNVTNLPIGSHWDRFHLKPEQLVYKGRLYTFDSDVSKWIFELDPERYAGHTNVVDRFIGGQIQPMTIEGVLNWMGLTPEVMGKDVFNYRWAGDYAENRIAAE

[4] = system: Pseudomonas pickettii PKO1 (T3MO); assay: Enantiomeric ratio of monoepoxides (chiral GC), strain PKO1; type: cell-based; conditions: KO1 (PKO1)
Experimental: as §1

[5] = system: Burkholderia sp. strain ENVBF1; assay: Enantiomeric ratio of monoepoxides (chiral GC), strain ENVBF1; type: cell-based
Experimental: as §1

T4MO = assay: Induction of T4MO by alkenes and toluene (FIG. 14); type: cell-based; conditions: at 120 minutes
Experimental: The data points are the average of duplicate samples, with the range shown as error bars. The relative light units registered by the 2-pentene sample at 120 minutes was approximately 10^5.

[6] = system: Pseudomonas sp. strain ENVPC5; assay: Alkene degradation assay, whole cells of Pseudomonas sp. strain ENVPC5 (T4MO); type: cell-based; conditions: following 30 minutes incubation
Excerpt: (§2) Pseudomonas mendocina KR1 (Yen et al., J. Bacteriol., 173:5315–5327 (1991)), the T4MO mutant of KR1 Pseudomonas mendocina ENVpmx1 (McClay et al., The 97th Annual Meeting of ASM, Abstract K36, page 348 (1997)), Pseudomonas pickettii PKO1 (Byrne et al., Gene, 154:65–70 (1995)), Burkholderia cepacia G4 (Shields et al., Appl. Environ. Microbiol., 55:1624–1629 (1989)), Burkholderia sp. strain ENVBF1 (McClay et al., Appl. Environ. Microbiol., 62:2716–2722 (1996)), and Pseudomonas sp. strain ENVPC5 (McClay et al., 1996, supra) were cultured overnight at 30° C. in shake flasks containing basal salts medium (BSM; 10) supplemented with 0.4% sodium glutamate. Toluene was included in the vapor phase when induction of the toluene oxygenases was desired. Prior to substrate degradation assays the cultures were harvested by centrifugation and resuspended in BSM to an optical density at 550 nm (OD550) of 2, unless otherwise indicated. A standard curve of optical density vs. protein concentration for each strain was used to calculate the amount of protein per ml of the resuspended cultures.
(§3) To determine the range of alkenes that could be degraded by the toluene monooxygenase and the degradation kinetics of the toluene monooxygenases, 5-ml aliquots of the resuspended cultures were dispensed to 25-ml serum vials and crimp sealed with Teflon™ faced septa. Gaseous alkene substrates were added as pure compounds by using a gas-tight syringe, and other alkene substrates were added from stock solutions (20% in dimethylformamide). The amount of individual alkene substrates added were as follows: 1-butene, 2-butene, and 1,3-butadiene, 2.2 μM; epoxy butane, 1,3-butadiene monoxide, and epichlorohydrine, 8 μM; 1- and 2-pentene, 9 μM; hexene, 4 μM; octadiene, 4.5 μM; 2-chloropropene, 11 μM; and, 2,3-dichloropropene, 12 μM unless otherwise indicated. The serum vials were then placed horizontally on a rotary shaker operating at 100 rpm. During incubation the temperature was maintained between 20–22° C. for the Pseudomonads and at 37° C. for E. coli. The serum vials were periodically removed from the shaker and a 10–25 μl portion of the headspace gas was withdrawn through the septa and injected onto a gas chromatograph (GC) equipped with a 30 m Vocol column (Supelco Inc. Bellefonte, Pa.) maintained at 160° C., and a flame ionization detector. This allowed the monitoring of both the alkene compounds as well as the epoxide products. The same protocol was used to detect the formation of 1,2-butanediol and butadiene diepoxide, except that 1 μl of the culture media was injected onto the column rather than the headspace gas.

Burkholderia cepacia G4 = assay: Alkene degradation assay, whole cells of Burkholderia cepacia G4 (T2MO); type: cell-based; conditions: G4; following 30 minutes incubation
Excerpt: as §2, §3

[7] = system: Pseudomonas mendocina KR1; assay: Alkene degradation assay, whole cells of Pseudomonas mendocina KR1 (T4MO); type: cell-based
Excerpt: as §2, §3

[8] = system: E. coli (pRS202) expressing T4MO; assay: Alkene degradation assay, E. coli (pRS202) expressing T4MO; type: cell-based, Escherichia coli DH10B
Experimental: Escherichia coli DH10B containing the plasmid pRS202 (Pikus et al., Biochemistry, 35:9106–9119 (1996); Pikus et al., Biochemistry, 36:9283–9289 (1997)) was prepared in a similar manner except it was grown at 37° C. in LB media, and was resuspended to an OD550 of 4 in LB media with 0.3–1 mM IPTG to induce expression of T4MO.
as §3

[9] = system: Burkholderia sp. strain ENVBF1; assay: Alkene degradation assay, whole cells of Burkholderia sp. strain ENVBF1 (T4MO); type: cell-based; conditions: ENVBF1; following 30 minutes incubation
Excerpt: as §2, §3

wild type organisms = assay: Alkene oxidation and epoxide detection (GC, PNBP), wild type organisms; type: cell-based; conditions: all the wild type strains
Experimental: as §3
The only epoxides relevant to this study that were commercially available were 1,3-butadiene mono-, and diepoxide. These were used in GC analyses to determine retention times and to quantitate the conversion of 1,3-butadiene to the corresponding epoxides. To verify that the observed peaks were epoxides, a modification of the method of van Hylckama et al. (van Hylckama et al., Appl. Environ. Microbiol., 62:3304–3312 (1996)) was used, whereby epoxides were conjugated with PNBP to form intensely colored adducts of the epoxides. Serum vials were prepared as before, except that prior to sealing the vials, Durham tubes were placed inside the vials, with the opening of the Durham tube extending out of the liquid. The substrate was then added and the vials were incubated with moderate shaking at a 45° angle to prevent the culture liquid from entering the Durham tube. The transformation of the alkenes was monitored by GC analysis. […] The vials were then allowed to incubate for 8 hours before they were opened and the epoxide containing PNBP withdrawn. The total volume of PNBP solution was combined with an equal volume of acetone-triethylamine (50:50) and mixed rapidly. Epoxide/PNBP adducts were detected by spectra analysis (400–700 nm).

[10] = system: Pseudomonas mendocina ENVpmx1; assay: Alkene degradation assay, T4MO deficient strain Pseudomonas mendocina ENVpmx1; type: cell-based
Excerpt: as §2, §3

[11] = target: soluble methane monooxygenase (MMO) (Methylosinus trichosporium, UniProt P27353); conditions: cited from earlier work
Sequence of soluble methane monooxygenase (MMO) (P27353 whole entry): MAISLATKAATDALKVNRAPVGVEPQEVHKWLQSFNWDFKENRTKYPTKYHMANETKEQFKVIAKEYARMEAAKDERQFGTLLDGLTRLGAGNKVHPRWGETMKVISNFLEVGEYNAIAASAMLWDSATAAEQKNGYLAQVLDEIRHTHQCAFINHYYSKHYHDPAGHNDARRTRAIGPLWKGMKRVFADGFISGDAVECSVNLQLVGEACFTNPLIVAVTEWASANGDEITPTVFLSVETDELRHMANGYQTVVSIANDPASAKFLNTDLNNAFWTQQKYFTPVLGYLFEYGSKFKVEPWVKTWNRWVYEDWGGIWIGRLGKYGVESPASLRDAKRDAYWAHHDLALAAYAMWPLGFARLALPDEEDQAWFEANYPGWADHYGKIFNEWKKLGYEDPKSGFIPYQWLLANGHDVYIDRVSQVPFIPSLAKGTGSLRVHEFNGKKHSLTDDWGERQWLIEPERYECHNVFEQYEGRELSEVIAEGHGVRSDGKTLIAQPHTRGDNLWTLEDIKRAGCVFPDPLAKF
Sequence of soluble methane monooxygenase (MMO) (P27354 whole entry partner): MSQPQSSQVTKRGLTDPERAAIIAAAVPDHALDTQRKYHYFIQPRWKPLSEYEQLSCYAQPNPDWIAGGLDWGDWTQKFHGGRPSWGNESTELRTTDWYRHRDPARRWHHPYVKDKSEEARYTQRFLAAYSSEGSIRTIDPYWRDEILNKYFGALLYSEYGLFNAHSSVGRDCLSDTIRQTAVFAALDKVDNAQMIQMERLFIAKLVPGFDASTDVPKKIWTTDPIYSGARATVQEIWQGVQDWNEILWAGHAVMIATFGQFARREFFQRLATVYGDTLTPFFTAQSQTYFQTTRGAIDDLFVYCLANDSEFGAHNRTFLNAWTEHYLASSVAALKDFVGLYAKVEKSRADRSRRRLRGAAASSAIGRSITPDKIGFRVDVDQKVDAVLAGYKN
Sequence of soluble methane monooxygenase (MMO) (P27355 whole entry partner): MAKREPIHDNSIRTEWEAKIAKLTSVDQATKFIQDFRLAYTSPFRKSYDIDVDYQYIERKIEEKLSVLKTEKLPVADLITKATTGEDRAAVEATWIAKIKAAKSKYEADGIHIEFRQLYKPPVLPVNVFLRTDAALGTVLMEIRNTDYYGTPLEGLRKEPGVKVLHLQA
Sequence of soluble methane monooxygenase (MMO) (P27356 whole entry partner): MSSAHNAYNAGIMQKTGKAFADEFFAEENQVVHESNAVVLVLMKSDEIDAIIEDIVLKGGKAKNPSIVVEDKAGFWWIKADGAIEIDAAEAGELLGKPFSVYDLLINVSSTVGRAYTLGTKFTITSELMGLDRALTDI

styrene monooxygenase = target: T2, styrene monooxygenase (Pseudomonas sp, UniProt O50214); conditions: cited from earlier work
T2 sequence (O50214 1-415): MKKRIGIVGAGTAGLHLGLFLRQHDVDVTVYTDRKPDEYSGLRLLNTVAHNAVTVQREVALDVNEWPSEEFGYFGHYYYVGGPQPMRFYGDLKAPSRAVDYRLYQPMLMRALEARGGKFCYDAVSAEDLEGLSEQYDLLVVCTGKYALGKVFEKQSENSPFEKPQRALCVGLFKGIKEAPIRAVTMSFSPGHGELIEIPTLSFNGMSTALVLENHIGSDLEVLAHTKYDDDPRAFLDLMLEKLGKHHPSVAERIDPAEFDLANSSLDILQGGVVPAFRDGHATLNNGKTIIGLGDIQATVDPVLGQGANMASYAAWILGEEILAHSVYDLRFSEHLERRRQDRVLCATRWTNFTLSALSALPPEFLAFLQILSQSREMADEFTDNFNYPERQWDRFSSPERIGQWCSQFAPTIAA

C=CCC [1-butene]
monoepoxide formed, R enantiomer [1]: 11% and 11.3%
monoepoxide formed, S enantiomer [1]: 89% and 88.7%
monoepoxide formed, R enantiomer [2]: 6.5%
monoepoxide formed, S enantiomer [2]: 93.5%
monoepoxide formed, R enantiomer [3]: 0%
R isomer formed (alkene monooxygenase): 94%
monoepoxide formed, R enantiomer [4]: 8.3%
monoepoxide formed, S enantiomer [4]: 92.7%
monoepoxide formed, R enantiomer [5]: 9.8%
monoepoxide formed, S enantiomer [5]: 90.2%

CC=CCC [2-pentene]
induction of T4MO, relative light units (T4MO): approximately 10^5 relative light units
Specific activity of toluene monooxygenase, substrate degraded [6]: 0.18 μM substrate degraded/minute/mg protein
Specific activity of toluene monooxygenase, substrate degraded (Burkholderia cepacia G4): 0.16 μM substrate degraded/minute/mg protein
initial oxidation rate [7]: 0.33 mM/min/mg protein
Specific activity of toluene monooxygenase, substrate degraded ([7]; following 30 minutes incubation): 0.33 μM substrate degraded/minute/mg protein
degradation by the clone of T4MO [8]: degraded
Specific activity of toluene monooxygenase, substrate degraded [9]: 0.14 μM substrate degraded/minute/mg protein
degradation (wild type organisms): efficiently degraded
degradation compared with the wild type strains [10]: more rapidly and to a greater extent than the wild type strains

C=CCCl [3-chloropropene]
(S) epoxide formed (alkene monooxygenase): 80%

C=CC(C)C [3-methyl-butene]
oxidation by MMO [11]: unable to oxidize

C1=CCCCC1 [cyclohexene]
oxidation by MMO [11]: unable to oxidize

C=Cc1ccccc1 [styrene]
enantiomer excess of (S)-styrene oxide formed (styrene monooxygenase): > 99%
